Data taken from US20260217677A1, “ORGANIC COMPOUNDS AS NLRP3 INHIBITORS” (KODIAK SCIENCES, INC., priority 2023, published 2026).

system: IL-1β release in U937 cells after NLRP3 activation; assay: IL-1β release inhibition in U937 cells (MSD V-Plex); settings: Homo sapiens, U-937, read-out: IL-1β IC50, Table 3; PMA-differentiated U937 cells, 1 μg/mL LPS 3 h, compound 30 min, 10 mM nigericin 1 h
Method: Differentiating media was prepared by adding 20 nM phorbol 12-myristate 13-acetate (PMA) (AdipoGen AG-CN2-0010-M005) to growth medium. A cell suspension was prepared with differentiating media at 500K cells/mL. […] Plates were placed in an incubator for 90 hours. […] Differentiating media was removed and priming media was added to each well. The plates were placed in the incubator for three (3) hours. 20 mM compound DMSO stock solutions were prepared and were further diluted to 0.4 mM; This solution was serially diluted 6 times in a 1:5 ratio. A solvent control was included.
After three (3) hours of priming, all the media was removed. Next, assay media with compounds was added in duplicate columns. The plate was placed in an incubator for 30 min. Media with a final concentration of 10 mM nigericin was then added for one (1) hour. The supernatant was collected and frozen immediately at −80° C. The plate was transferred to −20° C. the next day and for later determination of cytokine IL-1ß levels.
The release of IL-1ß into the cell media was determined with the MSD® Multi-Spot Assay System (V-Plex, IL-1ß kit, K151KPD). Following the manufacturer's protocol (Alternate Protocol 3, Dilute-In-Plate), the level of IL-1ß in the above collected supernatant plate was measured using electro-chemiluminescent signals. Using MSD DISCOVERY WORKBENCH® analysis software, the signals were converted to the concentration of IL-1ß in each well. The IC50 values of the compounds were calculated using fitted non-linear regression curve in Graph Pad Prism software. The detection range of IL-1ß using MSD kit was approximately 0.15 to 600 μg/mL (based on various lots of standards purchased from MSD).

Cc1cc(N[C@@H]2CCCN(C3CCN(C4CC(O)C4)CC3)C2)nnc1-c1ccc(C(F)(F)F)cc1O (single isomer, unassigned) [Example 38A] and Cc1cc(N[C@@H]2CCCN(C3CCN(C4CCC(O)CC4)CC3)C2)nnc1-c1ccc(C(F)(F)F)cc1O (single isomer, unassigned) [Example 39A] fall in the same range of IC50: 5 to 50 nM for the first, 5 to 50 nM for the second.

Cc1cc(N[C@@H]2CCCN(C3CCC(O)CC3)C2)nnc1-c1ccc(C(F)(F)F)cc1O (single isomer, unassigned) [Example 53] and Cc1cc(N[C@@H]2CCCN(CCC3CCC(O)CC3)C2)nnc1-c1ccc(C(F)(F)F)cc1O (single isomer, unassigned) [Example 72] cannot be ordered by IC50: under 5 nM for the first, under 5 nM for the second.

Cc1cc(N[C@@H]2CCCN(C(=O)C3CCCC(O)C3)C2)nnc1-c1ccc(C(F)(F)F)cc1O (single isomer, unassigned) [Example 70 Fraction A] and Cc1cc(N[C@@H]2CCCN(CC(=O)N3CCC(O)CC3)C2)nnc1-c1ccc(C(F)(F)F)cc1O [Compound 9, 2-[(3R)-3-({6-[2-Hydroxy-4-(trifluoromethyl)phenyl]-5-methylpyridazin-3-yl}amino)piperidin-1-yl]-1-(4-hydroxypiperidin-1-yl)ethanone] fall in the same range of IC50: 5 to 50 nM for the first, 5 to 50 nM for the second.

Compared with Cc1cc(N[C@@H]2CCCN(CC(=O)N3CCC(O)C3)C2)nnc1-c1ccc(C(F)(F)F)cc1O (stereo partly drawn) [Compound 1, 2-((R)-3-((6-(2-Hydroxy-4-(trifluoromethyl)phenyl)-5-methylpyridazin-3-yl)amino)piperidin-1-yl)-1-(3-hydroxypyrrolidin-1-yl)ethan-1-one], Cc1cc(N[C@@H]2CCCN(CC(=O)N3CC[C@H](O)C3)C2)nnc1-c1ccc(C(F)(F)F)cc1O [Compound 11, 2-((R)-3-((6-(2-Hydroxy-4-(trifluoromethyl)phenyl)-5-methylpyridazin-3-yl)amino)piperidin-1-yl)-1-((S)-3-hydroxypyrrolidin-1-yl)ethan-1-one] is lower in IC50: 5 to 50 nM for the first, under 5 nM for the second. The second is the more potent here.

Cc1cc(N[C@@H]2CCCN(CCN3CCC(O)C3)C2)nnc1-c1ccc(C(F)(F)F)cc1O (stereo partly drawn) [Compound 2, 1-(2-((R)-3-((6-(2-Hydroxy-4-(trifluoromethyl)phenyl)-5-methylpyridazin-3-yl)amino)piperidin-1-yl)ethyl)pyrrolidin-3-ol] and Cc1cc(N[C@@H]2CCCN(CCN3CC[C@@H](O)C3)C2)nnc1-c1ccc(C(F)(F)F)cc1O [Compound 3, (R)-1-(2-((R)-3-((6-(2-Hydroxy-4-(trifluoromethyl)phenyl)-5-methylpyridazin-3-yl)amino)piperidin-1-yl)ethyl)pyrrolidin-3-ol] cannot be ordered by IC50: over 500 nM for the first, over 500 nM for the second.

First: Cc1cc(N[C@@H]2CCCN(CCN3CC[C@H](O)C3)C2)nnc1-c1ccc(C(F)(F)F)cc1O [Compound 4, (S)-1-(2-((R)-3-((6-(2-Hydroxy-4-(trifluoromethyl)phenyl)-5-methylpyridazin-3-yl)amino)piperidin-1-yl)ethyl)pyrrolidin-3-ol]
Second: Cc1cc(N[C@@H]2CCCN(CCN3CCC(O)CC3)C2)nnc1-c1ccc(C(F)(F)F)cc1O [Compound 7, (R)-1-(2-(3-((6-(2-Hydroxy-4-(trifluoromethyl)phenyl)-5-methylpyridazin-3-yl)amino)piperidin-1-yl)ethyl)piperidin-4-ol]
The IC50 of the first is higher: over 500 nM for the first, 5 to 50 nM for the second.

First: Cc1cc(N[C@@H]2CCCN(CCN3CC(O)C(F)C3)C2)nnc1-c1ccc(C(F)(F)F)cc1O (stereo partly drawn) [Compound 5, 4-Fluoro-1-(2-((R)-3-((6-(2-hydroxy-4-(trifluoromethyl)phenyl)-5-methylpyridazin-3-yl)amino)piperidin-1-yl)ethyl)pyrrolidin-3-ol]
Second: Cc1cc(N[C@@H]2CCCN(CC(=O)N3CC(O)C3)C2)nnc1-c1ccc(C(F)(F)F)cc1O [Compound 8, (R)-2-(3-((6-(2-Hydroxy-4-(trifluoromethyl)phenyl)-5-methylpyridazin-3-yl)amino)piperidin-1-yl)-1-(3-hydroxyazetidin-1-yl)ethan-1-one]
The IC50 of the first is lower: under 5 nM for the first, 5 to 50 nM for the second. The first is the more potent here.

First: Cc1cc(C(F)(F)F)cc(O)c1-c1ccc(N[C@@H]2CCCN(CCN3CCC(O)CC3)C2)nn1 [Compound 6, (R)-1-(2-(3-((6-(2-Hydroxy-6-methyl-4-(trifluoromethyl)phenyl)pyridazin-3-yl)amino)piperidin-1-yl)ethyl)piperidin-4-ol]
Second: Cc1cc(N[C@@H]2CCCN(CC(=O)N3CC[C@@H](O)C3)C2)nnc1-c1ccc(C(F)(F)F)cc1O [Compound 12, 2-((R)-3-((6-(2-Hydroxy-4-(trifluoromethyl)phenyl)-5-methylpyridazin-3-yl)amino)piperidin-1-yl)-1-((R)-3-hydroxypyrrolidin-1-yl)ethan-1-one]
The IC50 of the first is higher: 50 to 500 nM for the first, under 5 nM for the second. The second is the more potent here.

Cc1cc(N[C@@H]2CCCN(CC(=O)NC3CC(O)C3)C2)nnc1-c1ccc(C(F)(F)F)cc1O (stereo partly drawn) [Compound 10, 2-((R)-3-((6-(2-Hydroxy-4-(trifluoromethyl)phenyl)-5-methylpyridazin-3-yl)amino)piperidin-1-yl)-N-((1r,3R)-3-hydroxycyclobutyl)acetamide] and Cc1cc(N[C@@H]2CCCN(CC(=O)N[C@H]3C[C@@H](O)C3)C2)nnc1-c1ccc(C(F)(F)F)cc1O [Compound 14, 2-((R)-3-((6-(2-Hydroxy-4-(trifluoromethyl)phenyl)-5-methylpyridazin-3-yl)amino)piperidin-1-yl)-N-((1s,3S)-3-hydroxycyclobutyl)acetamide] fall in the same range of IC50: 5 to 50 nM for the first, 5 to 50 nM for the second.

For Cc1cc(N[C@@H]2CCCN(CC(=O)NC34CC(O)(C3)C4)C2)nnc1-c1ccc(C(F)(F)F)cc1O [Compound 13, (R)-2-(3-((6-(2-Hydroxy-4-(trifluoromethyl)phenyl)-5-methylpyridazin-3-yl)amino)piperidin-1-yl)-N-(3-hydroxybicyclo[1.1.1]pentan-1-yl)acetamide], the IC50 was 5 to 50 nM.

same assay, conditions: Homo sapiens, U-937, read-out: IL-1β IC50, Table 4; PMA-differentiated U937 cells, 1 μg/mL LPS 3 h, compound 30 min, 10 mM nigericin 1 h

Cc1cc(N[C@@H]2CCCN([C@H]3C[C@H](N)C3)C2)nnc1-c1ccc(C(F)(F)F)cc1O (relative stereo) [Example 90, 2-(6-(((R)-1-((1r*,3R*)-3-Aminocyclobutyl)piperidin-3-yl)amino)-4-methylpyridazin-3-yl)-5-(trifluoromethyl)phenol] and Cc1cc(N[C@@H]2CCCN(C3CC(N)C3)C2)nnc1-c1ccc(C(F)(F)F)cc1O (stereo in doubt) [Example 91, 2-(6-(((R)-1-((1s*,3S*)-3-aminocyclobutyl)piperidin-3-yl)amino)-4-methylpyridazin-3-yl)-5-(trifluoromethyl)phenol] fall in the same range of IC50: 5 to 50 nM for the first, 5 to 50 nM for the second.

same assay, conditions: read-out: IL-1β IC50; Table 3; PMA-differentiated U937 cells, 1 μg/mL LPS 3 h, compound 30 min, 10 mM nigericin 1 h

Cc1cc(N[C@@H]2CCCN(C3CCN(C4CC(O)C4)CC3)C2)nnc1-c1ccc(C(F)(F)F)cc1O (single isomer, unassigned) [Example 38B] and Cc1cc(N[C@@H]2CCCN(C3CCN(C4CCC(O)CC4)CC3)C2)nnc1-c1ccc(C(F)(F)F)cc1O (single isomer, unassigned) [Example 39B] fall in the same range of IC50: 5 to 50 nM for the first, 5 to 50 nM for the second.

Cc1cc(N[C@@H]2CCCN(C3CCC(O)CC3)C2)nnc1-c1ccc(C(F)(F)F)cc1O (single isomer, unassigned) [Example 54] and Cc1cc(N[C@@H]2CCCN(C(=O)C3CCCC(O)C3)C2)nnc1-c1ccc(C(F)(F)F)cc1O (single isomer, unassigned) [Example 70 Fraction B] cannot be ordered by IC50: under 5 nM for the first, under 5 nM for the second.
